Assay results from patent US20240018466A1, “METHOD FOR INDUCING SALMONELLA ENTERITIDIS INTO VBNC STATE BY SODIUM HYPOCHLORITE” (Zhejiang Academy of Agricultural Sciences, priority 2022, published 2024).

Key:
[1] = test system: S. Enteritidis CVCC 1806; experiment: Counts of live cells by Live and Dead BacLight SYTO9/PI staining and flow cytometry after NaClO stress treatment; assay type: cell-based, Salmonella enteritidis
Experimental: the NaClO stock solution of NaClO disinfectant solution containing 56.8 mg/mL chlorine was diluted to 100 mg/L with sterilized sterile water for later use, and 0.5 ml of bacterial suspension (10^9 CFU/mL) and 100 mg/L NaClO solution were taken respectively into a sterile EP tube. The products in the sterile EP tube were vortex-mixed, and the stress concentration in the final system was 50 mg/L.
The mixed reagent was placed at room temperature, and systems were obtained for processing every 0.5 h within a stress treatment for up to 3 h, and 100 μL 1.5% Na2S2O3 was added to terminate the reaction.
Counts of live cells: the concentration of bacterial suspension was adjusted to 10^7-10^9 CFU/mL, and live, dead and injured bacteria were distinguished using commercial Live and Dead BacLight test kits (Molecular Probes, Carlsbad, CA, USA). […]

[2] = test system: S. Enteritidis CVCC 1806; experiment: Counts of culturable cells by plate counting method after NaClO stress treatment; assay type: cell-based, Salmonella enteritidis; settings: after 2.5 h of treatment with 50 mg/L NaClO solution, room temperature; FIG. 1

OCl [NaClO, sodium hypochlorite]
total content of live cells and bacteria in the sub-lethal injury state in the system ([1]; after 2.5 h of treatment with 50 mg/L NaClO solution, flow cytometry): 60.03%
induction of VBNC state ([1]; after 2.5 h of treatment with 50 mg/L NaClO, live minus culturable cells at maximum): enter the VBNC state
number of culturable cells [2]: 0 CFU/ml
